Where two headings read alike, the source gives them in different places.
Columns and labels:
[1] = tested on: SDMA in HCT116-MTAP-knockout cell line; assay: Cell symmetric dimethylarginine (SDMA) test, In-cell Western, HCT116-MTAP-knockout; format: cell-based; conditions: Homo sapiens, 96 h
[2] = tested on: SDMA in human colon cancer cell line HCT116; assay: Cell symmetric dimethylarginine (SDMA) test, In-cell Western, HCT116 (MTAP wild-type); format: cell-based; conditions: Homo sapiens, HCT-116, 96 h
Procedure, shortened: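 SDMA level, an indirect readout of cellular MAT2A inhibition, measured by In-cell Western as background-subtracted 800/700 nm signal against DRAQ5. Cells exposed 4 days to six 1:4-diluted doses from 6 μM; inhibition relative to DMSO, IC50 from sigmoidal fit.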

Hut-78 cell strain = assay: Tumor cell proliferation inhibition assay (CellTiter-Glo), Hut-78; format: cell-based; conditions: Homo sapiens, HuT78, 120 h, Hut-78 cells, 5-day treatment
Method: After the HCT116-MTAP-knockout (−/−) cell strain, the HCT116-MTAP wild-type(+/+)-cell strain, the DOHH-2 cell strain, or the Hut-78 cell strain was treated with the test compound for 5 days, the ATP level was measured using a CellTiter-Glo kit of Promega to evaluate the inhibition of the test compound against the growth of the tumor cell strain.
In the present application, the HCT116-MTAP-knockout (−/−) cell strain, the HCT116-MTAP wild-type (+/+)-cell strain, the DOHH-2 cell strain, or the Hut-78 cell strain was seeded into a 96-well cell culture plate at an appropriate cell density. After 24 h, the cells were treated using the test compounds diluted 1:3 fold at the highest concentration of 10 μM for 10 gradients, and a DMSO treatment group was set up separately. The cells were cultured in a 37° C./5% CO2 incubator for 5 days.

[3] = tested on: HCT116-MTAP wild-type (+/+)-cell strain; assay: Tumor cell proliferation inhibition assay (CellTiter-Glo), HCT116-MTAP wild-type (+/+); format: cell-based; conditions: Homo sapiens, 120 h, HCT116-MTAP wild-type (+/+) cells, 5-day treatment
Procedure, shortened: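 Seed cells; 24 h later add compound (10 gradients, 1:3, max 10 μM; DMSO ctrl). Incubate 5 d, 37° C./5% CO2. Measure ATP via CellTiter-Glo.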

[4] = molecular target: MAT2A recombinant protein (Homo sapiens, UniProt P31153); assay: MAT2A inhibitory activity (malachite green colorimetric enzyme assay); format: biochemical
Procedure, shortened: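 Compounds tested over 10 points, 3-fold dilutions, top final concentration 1000 nM. Enzyme reaction: MAT2A, L-methionine, ATP, room temperature, 60 min, in HEPES pH 7.5 buffer with KCl, MgCl2 and DTT; inorganic phosphate read colorimetrically (malachite green, A630). Inhibition vs log concentration fitted for IC50.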

[5] = IC50 score class, read-out: Cell 96 h SDMA Inhibition (HCT116-MTAP−/−) (score)
[6] = read-out: Cell 96 h SDMA Inhibition (HCT116-MTAP−/−)
[7] = IC50 score class, read-out: Cell 96 h SDMA Inhibition (HCT116-MTAP+/+) (score)
[8] = read-out: Cell 96 h SDMA inhibition (HCT116-MTAP+/+)
[9] = IC50 score, read-out: Tumor cell 5-day relative growth inhibition (Hut-78) (nM), score
[10] = IC50 value, read-out: Tumor cell 5-day relative growth inhibition (Hut-78)
[11] = IC50 score, read-out: Tumor cell 5-day relative growth inhibition (HCT116-MTAP+/+) (nM), score
[12] = IC50 value, read-out: Tumor cell 5-day relative growth inhibition (HCT116-MTAP+/+)
[13] = IC50 score class, read-out: MAT2A Inhibition (score)

Chain of MAT2A recombinant protein (P31153 whole entry): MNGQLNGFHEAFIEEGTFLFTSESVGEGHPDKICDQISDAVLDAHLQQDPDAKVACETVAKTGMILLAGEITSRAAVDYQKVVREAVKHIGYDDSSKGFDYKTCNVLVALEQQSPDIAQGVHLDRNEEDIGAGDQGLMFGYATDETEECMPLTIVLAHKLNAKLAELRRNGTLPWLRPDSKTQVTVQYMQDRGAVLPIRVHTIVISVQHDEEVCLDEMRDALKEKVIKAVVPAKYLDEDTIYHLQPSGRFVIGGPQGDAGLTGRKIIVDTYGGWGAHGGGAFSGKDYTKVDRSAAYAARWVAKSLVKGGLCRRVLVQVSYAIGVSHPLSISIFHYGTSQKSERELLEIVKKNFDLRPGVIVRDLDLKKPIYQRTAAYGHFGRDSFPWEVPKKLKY

Row | SMILES | IC50 [1, 5] [nM] | IC50 [1, 6] [nM] | IC50 [2, 7] [nM] | IC50 [2, 8] [nM] | IC50 (Hut-78 cell strain; [9]) [nM] | IC50 (Hut-78 cell strain; [10]) [nM] | IC50 [3, 11] [nM] | IC50 [3, 12] [nM] | IC50 [4, 13] [nM] | IC50 ([4]; read-out: MAT2A Inhibition) [nM]
1 | CCn1nc2c(=O)n(-c3cccnc3)c3cc(Cl)ccc3c2c1F [Compound B33] | 1000 to 3000 | 2650 | > 3000 | 4880 | 500 to 2000 | 1100 | ≥ 2000 | > 2000 | < 100 | 25.6
2 | NC(=O)CC1N=c2c(c3ccc(Cl)cc3n(-c3cccnc3)c2=O)=N1 (stereo not drawn) [Compound B36] | 1000 to 3000 | 2730 | < 200 | 24.7 | ≥ 2000 | > 2000 | ≥ 2000 | > 2000 | < 100 | 55.2
3 | CNC(=O)CC1N=c2c(c3ccc(Cl)cc3n(-c3cccnc3)c2=O)=N1 (stereo not drawn) [Compound B37] | 200 to 1000 | 888 | 1000 to 3000 | 1260 | ≥ 2000 | 6430 | ≥ 2000 | > 2000 | < 100 | 51.7
4 | Cc1ncccc1-n1c(=O)c2[nH]ncc2c2ccc(C3CC3)nc21 [Compound B95] | < 200 | 4 | > 3000 | > 3000 | < 500 | 18.8 | 500 to 2000 | 621 | < 100 | 48.2
5 | Cc1ncccc1-n1c(=O)c2[nH]ncc2c2ccc(OC(F)(F)F)cc21 [Compound B101] | < 200 | 48.7 | > 3000 | > 3000 | < 500 | 50.4 | ≥ 2000 | > 2000 | < 100 | 59.7
6 | Cc1cc(-n2c(=O)c3nn(C)cc3c3ccc(Cl)cc32)n(C)n1 [Compound B175] | 200 to 1000 | 993 | > 3000 | 6980 | ≥ 2000 | 2040 | – | – | < 100 | 80.5
7 | COc1cc(Cl)cc2c1c1cn(C)nc1c(=O)n2-c1cccnc1 [Compound B176] | 200 to 1000 | 263 | 1000 to 3000 | 1320 | 500 to 2000 | 985 | – | – | < 100 | 24.6
8 | Cn1cc2c(n1)c(=O)n(-c1ccccc1)c1nc(C(F)(F)F)ccc21 [Compound B177] | 200 to 1000 | 300 | 200 to 1000 | 858 | 500 to 2000 | 866 | – | – | < 100 | 24.3
9 | Cn1cc2c(n1)c(=O)n(-c1cccc(C#N)c1)c1nc(C(F)(F)F)ccc21 [Compound B192] | 200 to 1000 | 255 | 1000 to 3000 | 2450 | < 500 | 378 | – | – | < 100 | 26.9
10 | Cn1cc2c(n1)c(=O)n(-c1cccc(F)c1)c1nc(C(F)(F)F)ccc21 [Compound B193] | 200 to 1000 | 387 | 1000 to 3000 | 2110 | 500 to 2000 | 696 | – | – | < 100 | 25
11 | Cn1cc2c(n1)c(=O)n(-c1cccnc1Cl)c1nc(C(F)(F)F)ccc21 [Compound B196] | < 200 | 25.3 | 200 to 1000 | 691 | < 500 | 9.3 | – | – | < 100 | 45.1

More lines, now with the values ahead:

Row | IC50 [1, 5] [nM] | IC50 [1, 6] [nM] | IC50 [2, 7] [nM] | IC50 [2, 8] [nM] | IC50 (Hut-78 cell strain; [9]) [nM] | IC50 (Hut-78 cell strain; [10]) [nM] | IC50 [3, 11] [nM] | IC50 [3, 12] [nM] | IC50 [4, 13] [nM] | IC50 ([4]; read-out: MAT2A Inhibition) [nM] | SMILES
12 | < 200 | 25 | 200 to 1000 | 206 | < 500 | 21.8 | 500 to 2000 | 1740 | – | – | Cn1cc2c(n1)c(=O)n(-c1cccnc1C1CC1)c1nc(C(F)(F)F)ccc21 (single isomer, unassigned) [Compound B213]
13 | < 200 | 66.6 | 200 to 1000 | 634 | < 500 | 40.4 | – | – | < 100 | 51.4 | COc1ncccc1-n1c(=O)c2nn(C)cc2c2ccc(C(F)(F)F)nc21 [Compound B203]
14 | 1000 to 3000 | 1850 | 1000 to 3000 | 1190 | < 500 | 312 | – | – | < 100 | 67.4 | O=c1c2nn(C3CCOC3)cc2c2ccc(C(F)(F)F)nc2n1-c1cccnc1 (stereo not drawn) [Compound B204]
15 | 1000 to 3000 | 1180 | 1000 to 3000 | 1290 | ≥ 2000 | > 2000 | – | – | < 100 | 93 | Cn1cc2c(n1)c(=O)n(-c1ccc3[nH]cnc3c1)c1cc(Cl)ccc21 [Compound B206]
16 | < 200 | 39.1 | 1000 to 3000 | 1020 | < 500 | 47.7 | 500 to 2000 | 1150 | < 100 | 35.8 | Cc1ncccc1-n1c(=O)c2nn(C3CC3)cc2c2ccc(C(F)(F)F)nc21 [Compound B211]
17 | < 200 | 134 | 200 to 1000 | 433 | < 500 | 245 | ≥ 2000 | 3590 | < 100 | 25.3 | Cc1[nH]nc2c(=O)n(-c3cccnc3)c3nc(C(F)(F)F)ccc3c12 [Compound B216]
18 | 1000 to 3000 | 1820 | > 3000 | > 3000 | ≥ 2000 | 5430 | ≥ 2000 | > 2000 | – | – | Cc1cncc(-n2c(=O)c3nn(C)cc3c3ccc(C(F)(F)F)nc32)c1 [Compound B217]
19 | < 200 | 39.5 | > 3000 | > 3000 | < 500 | 130 | ≥ 2000 | 3990 | < 100 | 77.9 | COc1ccc(-n2cc3c(n2)c(=O)n(-c2ccccc2)c2nc(C(F)(F)F)ccc32)cc1 [Compound B218]
20 | 1000 to 3000 | 2540 | 200 to 1000 | 475 | ≥ 2000 | 10600 | ≥ 2000 | > 2000 | < 100 | 52.7 | Cn1cc2c(n1)c(=O)n(-c1cncc(O)c1)c1nc(C(F)(F)F)ccc21 [Compound B221]
21 | 200 to 1000 | 692 | 200 to 1000 | 583 | 500 to 2000 | 1360 | ≥ 2000 | > 2000 | – | – | Cc1ccc(-n2c(=O)c3nn(C)cc3c3ccc(C(F)(F)F)nc32)cn1 [Compound B223]
22 | < 200 | 16.5 | 200 to 1000 | 919 | < 500 | 27.7 | 500 to 2000 | 1030 | < 100 | 30.9 | Cc1ncccc1-n1c(=O)c2nn(C3CC3)cc2c2ccc(Cl)cc21 [Compound B226]
23 | > 3000 | 4690 | > 3000 | 3030 | ≥ 2000 | 4710 | ≥ 2000 | ≥ 2000 | < 100 | 51.8 | Cn1cc2c(n1)c(=O)n(-c1cnccn1)c1nc(C(F)(F)F)ccc21 [Compound B227]
24 | 1000 to 3000 | 2910 | > 3000 | 3220 | ≥ 2000 | 3450 | ≥ 2000 | > 2000 | < 100 | 37.3 | Cn1cc2c(n1)c(=O)n(-c1ccc(F)c(O)c1)c1nc(C(F)(F)F)ccc21 [Compound B228]
